According to patent US5624961A, “Benzylaminoethoxybenzene derivatives, production thereof and use thereof” (priority 1994, dated 1997):
Where a name gives a salt, the structure may show the parent alone.

Columns and labels:
α1 -adrenoceptor = assay: α1-adrenoceptor blocking effect, preparation from the thoracic aorta of rabbit, Magnus method; assay type: cell-based
Method: Blocking of α1 -adrenoceptor
The α1 -adrenoceptor blocking effect was determined using a preparation from the thoracic aorta of rabbit, according to the Magnus method and expressed as pA2 value.

rabbit = assay: Orthostatic hypotensive effect, tilting of unanesthetized rabbit, orthostatic index (O.I.); assay type: in vivo; conditions: iv, tilted 90°, without anesthetization
From the text: Orthostatic hypotensive effect
The orthostatic hypotensive effect was examined by the following method which is in accordance with the method of Journal of Pharmacological Methods, vol. 5, p. 53 (1981). A rabbit was fixed at the dorsal position without anesthetization on an orthostatic hypotension measurement apparatus. Polyethylene catheters were inserted in right femoral artery and right femoral vein, and the catheter inserted in the artery was connected to a pressure transducer. The head of the rabbit was tilted rapidly at an angle of 90° from the horizontal position at 15 min intervals with the heart position as a rotational axis, and brought back to the horizontal position one minute later. The tilting was repeated three times, and after confirmation of occurrence of a constant response, a drug was administered from the polyethylene catheter inserted in the vein. […] [formula] (2) Test results

| SMILES | pA2 value (α1 -adrenoceptor) | Dose necessary for O.I. value to achieve 90% (rabbit) |
| --- | --- | --- |
| COc1c(C)c(C)c(O)c(C)c1CN(C)CCOc1cc(C)c(O)cc1C(C)C [Ex. 1, N-(3-hydroxy-6-methoxy-2,4,5-trimethylbenzyl)-N-methyl-2-(4-hydroxy-2-isopropyl-5-methylphenoxy)ethylamine] | 9.0 | 56.4 μg/kg, iv |
| Cc1cc(OCCN(C)Cc2c(C)c(O)c(C)c(C)c2OCCO)c(C(C)C)cc1O [Ex. 2, N-{3-hydroxy-6-(2-hydroxyethoxy)-2,4,5-trimethylbenzyl}-N-methyl-2-(4-hydroxy-2-isopropyl-5-methylphenoxy)ethylamine] | 8.1 |  |
| COc1c(C)c(C)c(O)c(C)c1CNCCOc1cc(C)c(NC(C)=O)cc1C(C)C [Ex. 3, N-(3-hydroxy-6-methoxy-2,4,5-trimethylbenzyl)-2-(4-acetylamino-2-isopropyl-5-methylphenoxy)ethylamine] | 8.2 |  |
| CCOc1c(C)c(C)c(O)c(C)c1CN(C)CCOc1cc(C)c(O)cc1C(C)C [Ex. 4, N-(2-ethoxy-5-hydroxy-3,4,6-trimethylbenzyl)-N-methyl-2-(4-hydroxy-2-isopropyl-5-methylphenoxy)ethylamine] | 8.5 | 61.3 μg/kg, iv |
| CCOc1c(C)c(C)c(OC(C)=O)c(C)c1CN(C)CCOc1cc(C)c(OC(C)=O)cc1C(C)C [Ex. 5, N-(3-acetoxy-6-ethoxy-2,4,5-trimethylbenzyl)-N-methyl-2-(4-acetoxy-2-isopropyl-5-methylphenoxy)ethylamine] | 8.3 |  |
| CCN(CC)CCN(CCOc1cc(C)ccc1C(C)C)Cc1c(C)c(O)c(C)c(C)c1OC [Ex. 6, N-(2-diethylaminoethyl)-N-(3-hydroxy-6-methoxy-2,4,5-trimethylbenzyl)-2-(2-isopropyl-5-methylphenoxy)ethylamine] | 7.5 |  |
| CCN(CCOc1cc(C)c(Cl)cc1C(C)C)Cc1c(C)c(O)c(C)c(C)c1OC [Ex. 7, N-ethyl-N-(3-hydroxy-6-methoxy-2,4,5-trimethylbenzyl)-2-(4-chloro-2-isopropyl-5-methylphenoxy)ethylamine] | 7.7 |  |
| COc1c(C)c(C)c(OC)c(CN(CCOc2cc(C)ccc2C(C)C)C(C)=O)c1C [Ex. 8, N-{2-(2-isopropyl-5-methylphenoxy)ethyl}-N-(2,5-dimethoxy-3,4,6-trimethylbenzyl)acetamide] | 7.3 |  |
| COc1c(C)c(C)c(O)c(C)c1CN(C)CCOc1cc(C)c(C(C)=O)cc1C(C)C [Ex. 9, N-(3-hydroxy-6-methoxy-2,4,5-trimethylbenzyl)-N-methyl-2-(4-acetyl-2-isopropyl-5-methylphenoxy)ethylamine] | 7.5 |  |
| COc1c(C)c(C)c(OC)c(CN(C)CCOc2cc(C)c(NC(C)=O)cc2C(C)C)c1C [Ex. 10, N-(2,5-dimethoxy-3,4,6-trimethylbenzyl)-N-methyl-2-(4-acetylamino-2-isopropyl-5-methylphenoxy)ethylamine] | 7.4 |  |
| COc1c(C)c(C)c(OC)c(CN(C)CCOc2cc(C)c(N)cc2C(C)C)c1C [Ex. 11, N-(2,5-dimethoxy-3,4,6-trimethylbenzyl)-N-methyl-2-(4-amino-2-isopropyl-5-methylphenoxy)ethylamine] | 8.3 |  |
| COc1c(C)c(C)c(O)c(C)c1CN(C)CCOc1cc(C)ccc1C(C)C [Ex. 12, N-(3-hydroxy-6-methoxy-2,4,5-trimethylbenzyl)-N-methyl-2-(2-isopropyl-5-methylphenoxy)ethylamine] | 8.1 |  |
| COc1c(C)c(C)c(OC(C)C)c(C)c1CN(C)CCOc1cc(C)ccc1C(C)C [Ex. 14, N-(3-isopropoxy-6-methoxy-2,4,5-trimethylbenzyl)-N-methyl-2-(2-isopropyl-5-methylphenoxy)ethylamine] | 7.6 |  |
| CCOc1c(C)c(C)c(OC)c(CN(C)CCOc2cc(C)ccc2C(C)C)c1C [Ex. 15, N-(3-ethoxy-6-methoxy-2,4,5-trimethylbenzyl)-N-methyl-2-(2-isopropyl-5-methylphenoxy)ethylamine] | 7.5 |  |
| Cc1ccc(C(C)C)c(OCCN(C)Cc2c(C)c(O)c(C)c(C)c2OCCO)c1 [Ex. 16, N-{3-hydroxy-6-(2-hydroxyethoxy)-2,4,5-trimethylbenzyl}-N-methyl-2-(2-isopropyl-5-methylphenoxy)ethylamine] | 7.6 |  |
| C=CCOc1c(C)c(C)c(OC(C)=O)c(C)c1CN(C)CCOc1cc(C)ccc1C(C)C [Ex. 17, N-{3-acetoxy-6-(2-propenyloxy)-2,4,5-trimethylbenzyl}-N-methyl-2-(2-isopropyl-5-methylphenoxy)ethylamine] | 7.4 |  |

| SMILES | pA2 value (α1 -adrenoceptor) | Dose necessary for O.I. value to achieve 90% (rabbit) |
| --- | --- | --- |
| CCN(CCOc1cc(C)c(Cl)cc1C(C)C)Cc1c(C)c(OC(C)=O)c(C)c(C)c1OC(C)C [Ex. 18, N-(3-acetoxy-6-isopropoxy-2,4,5-trimethylbenzyl)-N-ethyl-2-(4-chloro-2-isopropyl-5-methylphenoxy)ethylamine] | 7.2 |  |
| CCOc1c(C)c(C)c(O)c(CNCCOc2cc(C)ccc2C(C)C)c1C [Ex. 19, N-(3-ethoxy-6-hydroxy-2,4,5-trimethylbenzyl)-2-(2-isopropyl-5-methylphenoxy)ethylamine] | 7.3 |  |
| CCOc1c(C)c(C)c(OCc2ccccc2)c(CNCCOc2cc(C)ccc2C(C)C)c1C [Ex. 20, N-(2-benzyloxy-5-ethoxy-3,4,6-trimethylbenzyl)-2-(2-isopropyl-5-methylphenoxy)ethylamine] | 7.2 |  |
| COc1c(C)c(C)c(O)c(C)c1CNCCOc1cc(C)c(O)cc1C(C)C [Ex. 21, N-(3-hydroxy-6-methoxy-2,4,5-trimethylbenzyl)-2-(4-hydroxy-2-isopropyl-5-methylphenoxy)ethylamine] | 9.8 | 32.8 μg/kg, iv |
| COc1c(C)c(C)c(O)c(C)c1CN(CCOc1cc(C)c(O)cc1C(C)C)C(C)C [Ex. 22, N-(3-hydroxy-6-methoxy-2,4,5-trimethylbenzyl)-N-isopropyl-2-(4-hydroxy-2-isopropyl-5-methylphenoxy)ethylamine] | 7.5 |  |
| COCCN(CCOc1cc(C)c(O)cc1C(C)C)Cc1c(C)c(O)c(C)c(C)c1OC [Ex. 23, N-(3-hydroxy-6-methoxy-2,4,5-trimethylbenzyl)-N-(2-methoxyethyl)-2-(4-hydroxy-2-isopropyl-5-methylphenoxy)ethylamine] | 7.6 |  |
| CCCOc1c(C)c(C)c(O)c(C)c1CN(C)CCOc1cc(C)c(O)cc1C(C)C [Ex. 24, N-(3-hydroxy-6-propoxy-2,4,5-trimethylbenzyl)-N-methyl-2-(4-hydroxy-2-isopropyl-5-methylphenoxy)ethylamine] | 8.3 |  |
| CCCCOc1c(C)c(C)c(O)c(C)c1CN(C)CCOc1cc(C)c(O)cc1C(C)C [Ex. 26, N-(2-butoxy-5-hydroxy-3,4,6-trimethylbenzyl)-N-methyl-2-(4-hydroxy-2-isopropyl-5-methylphenoxy)ethylamine] | 8.3 |  |
| CC(=O)Oc1c(C)c(C)c(O)c(CN(C)CCOc2cc(C)c(O)cc2C(C)C)c1C [Ex. 27, N-(3-acetoxy-6-hydroxy-2,4,5-trimethylbenzyl)-N-methyl-2-(4-hydroxy-2-isopropyl-5-methylphenoxy)ethylamine] | 8.1 |  |
| COc1c(C)c(C)c(OC)c(CN(C)CCOc2cc(C)c(O)cc2C(C)C)c1C [Ex. 28, N-(2,5-dimethoxy-3,4,6-trimethylbenzyl)-N-methyl-2-(4-hydroxy-2-isopropyl-5-methylphenoxy)ethylamine] | 9.0 | 40.3 μg/kg, iv |
| COCCOc1c(C)c(C)c(O)c(C)c1CN(C)CCOc1cc(C)c(O)cc1C(C)C [Ex. 29, N-{3-hydroxy-6-(2-methoxyethoxy)-2,4,5-trimethylbenzyl}-N-methyl-2-(4-hydroxy-2-isopropyl-5-methylphenoxy)ethylamine] | 8.2 |  |
| CCOc1c(C)c(C)c(O)c(C)c1CN(CCOc1cc(C)c(O)cc1C(C)C)C(C)C [Ex. 30, N-(2-ethoxy-5-hydroxy-3,4,6-trimethylbenzyl)-N-isopropyl-2-(4-hydroxy-2-isopropyl-5-methylphenoxy)ethylamine] | 7.2 |  |
| CCN(CCOc1cc(C)c(O)cc1C(C)C)Cc1c(C)c(O)c(C)c(C)c1OC [Ex. 31, N-ethyl-N-(3-hydroxy-6-methoxy-2,4,5-trimethylbenzyl)-2-(4-hydroxy-2-isopropyl-5-methylphenoxy)ethylamine] | 8.6 |  |
| COc1cc(C(C)C)c(OCCN(C)Cc2c(C)c(OC)c(C)c(C)c2OC)cc1C [Ex. 32, N-(2,5-dimethoxy-3,4,6-trimethylbenzyl)-N-methyl-2-(2-isopropyl-4-methoxy-5-methylphenoxy)ethylamine] | 7.2 |  |
| CC(=O)Oc1cc(C(C)C)c(OCCN(C)C)cc1C [moxisylyte hydrochloride, reference compound] | 7.6 |  |
| COc1cc2nc(N3CCN(C(=O)c4ccco4)CC3)nc(N)c2cc1OC [prazosin hydrochloride, reference compound] | 8.6 | 5.6 μg/kg, iv |
